Test results from ChEMBL document CHEMBL4190264, “Phylogenomics of 2,4-Diacetylphloroglucinol-Producing Pseudomonas and Novel Antiglycation Endophytes from Piper auritum” (J Nat Prod, 2017).
One block for each compound: values may come before it. The source made the active and inactive calls. No cut-off for these calls is given here.

How the values were obtained:
[1] = biological target: T1, Albumin (Homo sapiens, UniProt P02768); experiment: Antiglycation activity in human serum albumin assessed as inhibition of fructosamine formation by measuring amadori products after 10 to 15 mins in presence of 5-hydroxyferulic acid by NBT assay
T1 sequence (P02768 whole entry): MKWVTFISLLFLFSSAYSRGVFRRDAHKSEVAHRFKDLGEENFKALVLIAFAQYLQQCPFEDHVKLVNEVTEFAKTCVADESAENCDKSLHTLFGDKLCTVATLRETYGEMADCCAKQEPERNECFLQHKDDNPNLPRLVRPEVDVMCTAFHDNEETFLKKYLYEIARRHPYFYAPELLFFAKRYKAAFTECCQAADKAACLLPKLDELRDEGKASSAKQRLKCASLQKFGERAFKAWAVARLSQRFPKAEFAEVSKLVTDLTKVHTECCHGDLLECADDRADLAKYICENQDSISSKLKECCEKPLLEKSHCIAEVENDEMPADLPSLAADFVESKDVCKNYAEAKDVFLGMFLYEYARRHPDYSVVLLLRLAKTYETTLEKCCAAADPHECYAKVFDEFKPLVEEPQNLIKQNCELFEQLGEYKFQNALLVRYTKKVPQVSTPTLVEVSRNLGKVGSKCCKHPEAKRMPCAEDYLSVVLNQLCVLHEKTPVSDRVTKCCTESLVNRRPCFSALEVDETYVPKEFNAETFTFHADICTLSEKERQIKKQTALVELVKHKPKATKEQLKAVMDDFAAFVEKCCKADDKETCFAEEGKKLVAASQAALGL

[2] = biological target: T2, Albumin (Bos taurus, UniProt P02769); experiment: Antiglycation activity in bovine serum albumin assessed as inhibition of MGO-mediated protein modification after 5 days by PAGE analysis; conditions: cattle, 120 h
T2 sequence (P02769 whole entry): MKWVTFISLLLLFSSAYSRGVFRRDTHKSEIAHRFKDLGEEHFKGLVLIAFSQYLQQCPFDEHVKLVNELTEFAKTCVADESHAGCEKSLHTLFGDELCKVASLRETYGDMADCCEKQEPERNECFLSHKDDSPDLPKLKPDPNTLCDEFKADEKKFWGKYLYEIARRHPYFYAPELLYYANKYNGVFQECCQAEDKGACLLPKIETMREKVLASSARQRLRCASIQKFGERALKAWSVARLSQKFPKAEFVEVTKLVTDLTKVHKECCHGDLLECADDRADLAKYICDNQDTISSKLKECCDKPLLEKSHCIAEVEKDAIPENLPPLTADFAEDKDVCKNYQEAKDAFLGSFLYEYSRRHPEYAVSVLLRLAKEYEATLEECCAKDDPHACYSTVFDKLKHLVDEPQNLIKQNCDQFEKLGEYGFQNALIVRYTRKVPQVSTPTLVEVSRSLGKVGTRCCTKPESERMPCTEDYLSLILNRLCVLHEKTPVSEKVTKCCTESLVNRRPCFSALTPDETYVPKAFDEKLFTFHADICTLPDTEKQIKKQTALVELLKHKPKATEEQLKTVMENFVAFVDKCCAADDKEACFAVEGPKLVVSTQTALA

[3] = Inhibition of glucose auto-oxidation after 30 mins in presence of deoxyribose by benzoate hydroxylation assay; format: functional
[4] = biological target: T2, Albumin; experiment: Antiglycation activity in bovine serum albumin assessed as inhibition of advanced glycated end product formation in presence of D-glucose by spectrofluorimetric analysis; conditions: for inhibition (INH): cattle
[5] = biological target: T1, Albumin; experiment: Antiglycation activity in human serum albumin assessed as inhibition of fructosamine formation by measuring amadori products after 10 to 15 mins by NBT assay
[6] = biological target: T2, Albumin; experiment: Antiglycation activity in bovine serum albumin assessed as inhibition of advanced glycated end product formation in presence of D-glucose and 5-hydroxyferulic acid by spectrofluorimetric analysis; conditions: cattle
[7] = biological target: T2, Albumin; experiment: Antiglycation activity in bovine serum albumin assessed as inhibition of advanced glycated end product formation in presence of D-glucose at 10 mM by spectrofluorimetric analysis; conditions: cattle
[8] = biological target: T2, Albumin; experiment: Antiglycation activity in bovine serum albumin assessed as inhibition of advanced glycated end product formation in presence of D-glucose and ferulic acid by spectrofluorimetric analysis; conditions: cattle

inhibition (INH) [4]: Not Active | inhibition (INH) [6]: Active
SMILES: COc1cc(/C=C/C(=O)O)ccc1O [FERULATE]

inhibition (INH) [4]: 66%
SMILES: CCCCCCCCCCCCCCCC(=O)O [PALMITIC ACID]

inhibition (INH) [4]: Not Active | inhibition (INH) [8]: Active
SMILES: COc1cc(/C=C/C(=O)O)cc(O)c1O

inhibition (INH) [4]: 66%
SMILES: CCCCCCCC/C=C\CCCCCCC(=O)O

The next lines start with the compound.

SMILES: CC(=O)c1c(O)cc(O)c(C(C)=O)c1O
inhibition (INH) [1]: Active | inhibition (INH) [2]: Active | inhibition [3]: Active | EC50 [4]: 6.3 mM | inhibition (INH) [4]: 83% | inhibition (INH) [5]: Not Active | inhibition (INH) [6]: Active

SMILES: N=C(N)NN [PIMAGEDINE]
EC50 [4]: 26 mM | inhibition (INH) [7]: Active

SMILES: CCCCCC/C=C\CCCCCCCCCC(=O)O [VACCENIC ACID]
inhibition (INH) [4]: 66%
